Like-named read-outs stand apart in the source and are kept apart here.
Columns and labels:
TSST-1 = format: cell-based, Staphylococcus aureus
S. aureus MN8 = format: cell-based, Staphylococcus aureus; details: 24 hours at 35° C.

Laureth-4
TSST-1 (TSST-1; 24 hours at 35° C.): 531.8 ng/mL | Final [S. aureus] (×10^9 CFU/ml) (S. aureus MN8): 4.57 ×10^9 CFU/ml

Steareth-2
TSST-1 (TSST-1; 24 hours at 35° C.): 680.7 ng/mL | Final [S. aureus] (×10^9 CFU/ml) (S. aureus MN8): 5.76 ×10^9 CFU/ml

PPG-5 Laureth-5
TSST-1 (TSST-1): 609.2 ng/mL | Final [S. aureus] (×10^9 CFU/ml) (S. aureus MN8): 3.82 ×10^9 CFU/ml

— patent US6531435B1 (priority 2000, dated 2003)
